ChEMBL document CHEMBL1134027, “An improved method for the rapid preparation of 2-amino-4,4a-dihydro-4a,7-dimethyl-3H-phenoxazine-3-one, a novel antitumor agent” (2001)

Legend:
Type in all cases: functional
[1] = Inhibition of incorporation of [3H]thymidine into DNA of human lymphoid leukemia HAL-01 cell at 200 uM after 4 hr
HL-60 [2] = assay: Inhibition of incorporation of [3H]thymidine into DNA of human myeloid leukemia HL-60 cell at 100 uM after 1 hr
[3] = Inhibition of incorporation of [3H]thymidine into DNA of human lymphoid leukemia HAL-01 cell at 200 uM after 2 hr
[4] = Inhibition of incorporation of [3H]thymidine into DNA of human lymphoid leukemia HAL-01 cell at 100 uM after 8 hr
HL-60 [5] = assay: Inhibition of incorporation of [3H]thymidine into DNA of human myeloid leukemia HL-60 cell at 0 uM after 1 hr
[6] = Inhibition of incorporation of [3H]thymidine into DNA of human lymphoid leukemia HAL-01 cell at 100 uM after 2 hr
HL-60 [7] = assay: Inhibition of incorporation of [3H]thymidine into DNA of human myeloid leukemia HL-60 cell at 100 uM after 2 hr
[8] = Inhibition of incorporation of [3H]thymidine into DNA of human lymphoid leukemia HAL-01 cell at 200 uM after 1 hr
[9] = Inhibition of incorporation of [3H]thymidine into DNA of human lymphoid leukemia HAL-01 cell at 0 uM after 4 hr
HL-60 [10] = assay: Inhibition of incorporation of [3H]thymidine into DNA of human myeloid leukemia HL-60 cell at 0 uM after 8 hr
HL-60 [11] = assay: Inhibition of incorporation of [3H]-thymidine into DNA of human myeloid leukemia HL-60 cell at 100 uM after 4 hr
HL-60 [12] = assay: Inhibition of incorporation of [3H]thymidine into DNA of human myeloid leukemia HL-60 cell at 200 uM after 1 hr
[13] = Inhibition of incorporation of [3H]thymidine into DNA of human lymphoid leukemia HAL-01 cell at 100 uM after 4 hr
[14] = Inhibition of incorporation of [3H]thymidine into DNA of human lymphoid leukemia HAL-01 cell at 200 uM after 8 hr
HL-60 [15] = assay: Inhibition of incorporation of [3H]-thymidine into DNA of human myeloid leukemia HL-60 cell at 0 uM after 4 hr
[16] = Inhibition of incorporation of [3H]thymidine into DNA of human lymphoid leukemia HAL-01 cell at 0 uM after 8 hr
HL-60 [17] = assay: Inhibition of incorporation of [3H]thymidine into DNA of human myeloid leukemia HL-60 cell at 200 uM after 8 hr
[18] = Inhibition of incorporation of [3H]thymidine into DNA of human lymphoid leukemia HAL-01 cell at 0 uM after 2 hr
HL-60 [19] = assay: Inhibition of incorporation of [3H]thymidine into DNA of human myeloid leukemia HL-60 cell at 100 uM after 8 hr
HL-60 [20] = assay: Inhibition of incorporation of [3H]thymidine into DNA of human myeloid leukemia HL-60 cell at 0 uM after 2 hr
HL-60 [21] = assay: Inhibition of incorporation of [3H]thymidine into DNA of human myeloid leukemia HL-60 cell at 200 uM after 2 hr
[22] = Inhibition of incorporation of [3H]thymidine into DNA of human lymphoid leukemia HAL-01 cell at 100 uM after 1 hr
HL-60 [23] = assay: Inhibition of incorporation of [3H]thymidine into DNA of human myeloid leukemia HL-60 cell at 200 uM after 4 hr
[24] = Inhibition of incorporation of [3H]thymidine into DNA of human lymphoid leukemia HAL-01 cell at 0 uM after 1 hr

Cc1ccc2c(c1)OC1(C)CC(=O)C(N)=CC1=N2 (centres undefined) gave a No. of cells [1] of 10000, a No. of cells (HL-60 [2]) of 0 and a No. of cells [3] of 9000. It also gave a No. of cells [4] of 19000, a No. of cells (HL-60 [5]) of 0 and a No. of cells [6] of 17000. It also gave a No. of cells (HL-60 [7]) of 14000, a No. of cells [8] of 0 and a No. of cells [9] of 34000. It also gave a No. of cells (HL-60 [10]) of 35000, a No. of cells (HL-60 [11]) of 15000 and a No. of cells (HL-60 [12]) of 0. The No. of cells [13] was 18000, the No. of cells [14] was 14000 and the No. of cells (HL-60 [15]) was 25000. It also gave a No. of cells [16] of 40000, a No. of cells (HL-60 [17]) of 12000 and a No. of cells [18] of 25000. For the same compound, the No. of cells (HL-60 [19]) was 19000, the No. of cells (HL-60 [20]) was 21000 and the No. of cells (HL-60 [21]) was 6000. For the same compound, the No. of cells [22] was 0, the No. of cells (HL-60 [23]) was 9000 and the No. of cells [24] was 0.
